This passage reports IC50 results from patent publication US10239843B2 (CANCER RESEARCH TECHNOLOGY LIMITED, priority 2014, dated 2019).

Where two headings read alike, the source gives them in different places.

One assay has as its target Human Full Length ARH3 (Homo sapiens (Human), UniProt Q9NX46). The experiment in a line: ARH3 in vitro selectivity assay (TR-FRET). In kind it is biochemical. The settings on record: read-out: ARH3 Biochem IC50. A general note: Time-resolved FRET reads energy transfer from a long-lived donor to a nearby acceptor.
The test system of another assay is PARG in HeLa cell line. The experiment in a line: PARG cell assay (PAR chain immunofluorescence after MMS). In kind it is cell-based. The settings on record: HeLa cells. A digest of the protocol:
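HeLa cells were dosed with compound for 1 h, then given MMS at 50 μg/mL final for a further hour. Cells were methanol-fixed, permeabilised and stained overnight at 4° C with anti-PAR monoclonal antibody. Retained nuclear PAR chains, detected by indirect immunofluorescence, indicate PARG inhibition.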

For assay [1], the target named is Human High specific Activity PARP1 (Homo sapiens (Human), UniProt P09874). The experiment in a line: PARP1 in vitro selectivity assay (histone PARylation, luminescence). Type of assay: biochemical. The settings on record: read-out: PARP1 Biochem IC50. As to the method: PARP1 In vitro selectivity assays were conducted as a 10 ul reaction volume in a NUNC Maxisorp 384-well assay plate pre-coated in-house with Histones. […] The wells were then washed with PBS/0.1% Triton X100. PARP1 activity was then detected by measuring the extent of PARylation. […] Luminescence signal was then measured immediately.
Chain of Human High specific Activity PARP1 (P09874 whole entry): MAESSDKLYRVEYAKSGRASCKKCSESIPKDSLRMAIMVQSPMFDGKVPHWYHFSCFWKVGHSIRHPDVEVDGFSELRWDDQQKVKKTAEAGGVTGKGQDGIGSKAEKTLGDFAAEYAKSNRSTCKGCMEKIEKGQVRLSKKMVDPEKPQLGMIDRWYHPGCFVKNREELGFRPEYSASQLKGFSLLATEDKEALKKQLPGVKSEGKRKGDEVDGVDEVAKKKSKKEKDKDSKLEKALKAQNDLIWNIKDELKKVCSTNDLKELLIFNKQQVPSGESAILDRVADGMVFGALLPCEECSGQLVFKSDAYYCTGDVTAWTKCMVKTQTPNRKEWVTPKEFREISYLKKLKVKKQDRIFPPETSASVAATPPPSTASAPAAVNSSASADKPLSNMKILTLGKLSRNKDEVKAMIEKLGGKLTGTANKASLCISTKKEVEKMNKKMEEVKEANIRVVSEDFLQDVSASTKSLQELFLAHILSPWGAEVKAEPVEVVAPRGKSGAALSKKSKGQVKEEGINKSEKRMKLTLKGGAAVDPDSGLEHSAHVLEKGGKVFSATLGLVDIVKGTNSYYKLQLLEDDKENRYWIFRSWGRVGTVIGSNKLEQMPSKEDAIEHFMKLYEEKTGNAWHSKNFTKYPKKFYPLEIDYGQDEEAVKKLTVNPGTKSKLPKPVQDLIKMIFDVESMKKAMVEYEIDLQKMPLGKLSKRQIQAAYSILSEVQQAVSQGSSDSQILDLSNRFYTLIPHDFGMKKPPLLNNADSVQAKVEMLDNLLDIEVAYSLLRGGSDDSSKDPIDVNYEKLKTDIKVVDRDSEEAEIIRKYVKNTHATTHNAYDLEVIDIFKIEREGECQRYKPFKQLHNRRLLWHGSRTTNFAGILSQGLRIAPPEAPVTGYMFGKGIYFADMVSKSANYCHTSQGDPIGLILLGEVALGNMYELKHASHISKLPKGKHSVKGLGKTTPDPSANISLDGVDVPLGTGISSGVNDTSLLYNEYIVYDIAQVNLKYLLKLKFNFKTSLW

The next assay concerns the target Human Full Length PARG (Homo sapiens (Human), UniProt Q86W56). The assay is described as follows: PARG enzyme assay (TR-FRET). Type of assay: biochemical.
Where [2] appears, read: Homo sapiens, MMS 50 μg/mL, read-out: PARG Cell IC50 Geomean.
Setting [3] is: read-out: PARG Biochem IC50 Geomean.
Setting [4] is: MMS 50 μg/mL, read-out: PARG Cell IC50 Geomean.
Setting [5] is: MMS treatment, read-out: PARG Cell IC50.
[6] abbreviates: Homo sapiens, MMS treatment, read-out: PARG Cell IC50.

Chain of Human Full Length PARG (Q86W56 whole entry): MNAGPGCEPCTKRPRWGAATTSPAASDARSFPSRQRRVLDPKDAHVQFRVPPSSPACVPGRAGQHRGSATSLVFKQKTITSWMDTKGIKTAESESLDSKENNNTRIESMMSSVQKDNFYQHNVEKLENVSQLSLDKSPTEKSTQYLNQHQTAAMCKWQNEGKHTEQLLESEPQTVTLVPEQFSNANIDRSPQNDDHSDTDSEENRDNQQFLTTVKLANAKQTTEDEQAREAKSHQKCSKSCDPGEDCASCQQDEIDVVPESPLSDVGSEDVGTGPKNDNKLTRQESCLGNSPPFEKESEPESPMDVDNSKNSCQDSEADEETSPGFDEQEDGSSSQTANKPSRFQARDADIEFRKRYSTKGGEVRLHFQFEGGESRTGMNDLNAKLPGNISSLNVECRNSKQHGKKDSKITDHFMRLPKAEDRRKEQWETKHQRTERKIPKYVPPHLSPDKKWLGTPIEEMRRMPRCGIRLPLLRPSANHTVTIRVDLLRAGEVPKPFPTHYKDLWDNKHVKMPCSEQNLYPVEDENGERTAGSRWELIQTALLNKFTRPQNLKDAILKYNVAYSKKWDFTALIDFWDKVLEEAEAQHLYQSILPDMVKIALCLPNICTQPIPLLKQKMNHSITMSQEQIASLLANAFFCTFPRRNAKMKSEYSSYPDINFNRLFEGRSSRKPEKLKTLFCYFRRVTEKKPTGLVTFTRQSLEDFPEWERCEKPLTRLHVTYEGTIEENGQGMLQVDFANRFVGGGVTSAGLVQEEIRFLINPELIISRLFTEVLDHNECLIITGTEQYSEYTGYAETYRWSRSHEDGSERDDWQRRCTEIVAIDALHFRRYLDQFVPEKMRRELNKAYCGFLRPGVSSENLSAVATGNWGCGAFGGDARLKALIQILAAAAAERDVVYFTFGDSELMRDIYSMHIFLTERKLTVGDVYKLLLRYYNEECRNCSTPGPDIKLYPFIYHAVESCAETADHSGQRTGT
Chain of Human Full Length ARH3 (Q9NX46 whole entry): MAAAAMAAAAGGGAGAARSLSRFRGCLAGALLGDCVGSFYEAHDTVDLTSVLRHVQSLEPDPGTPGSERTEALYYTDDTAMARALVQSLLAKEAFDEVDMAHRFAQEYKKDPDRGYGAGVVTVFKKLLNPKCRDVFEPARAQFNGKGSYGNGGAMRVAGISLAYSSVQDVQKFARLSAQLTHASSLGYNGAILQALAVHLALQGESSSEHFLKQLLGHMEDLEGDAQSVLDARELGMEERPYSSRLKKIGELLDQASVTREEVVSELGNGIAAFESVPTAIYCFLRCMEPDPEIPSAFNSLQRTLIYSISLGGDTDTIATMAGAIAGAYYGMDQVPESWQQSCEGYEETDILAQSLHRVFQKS
Experimental for Human Full Length ARH3: ARH3 In vitro selectivity assays were conducted in a total volume of 15 ul in a standard 384 well format.

In the case of `Cc1cc(Cn2c(=O)c3cc(S(=O)(=O)NC4(C)CC4)ccc3n(C)c2=O)on1` [Example 180], the IC50 was over 150000 nM at Human Full Length ARH3, 460 nM with PARG in HeLa cell line (setting [2]), over 150000 nM in assay [1] and 426 nM at Human Full Length PARG (setting [3]).

Turning to `Cn1c(C2CC2)nc2ccc(S(=O)(=O)NC3(C)CC3)cc2c1=O` [Example 80], the IC50 was over 150000 nM on Human Full Length ARH3, over 150000 nM in assay [1] and 2180 nM on Human Full Length PARG (setting [3]).

`Cc1noc(C)c1Cn1c(=O)c2cc(S(=O)(=O)NC3(C)CC3)ccc2n(CC2CC2)c1=O` [Example 158]: the concentration for half-maximal inhibition (IC50) is over 100000 nM at Human Full Length ARH3, 88 nM with PARG in HeLa cell line (setting [4]), over 150000 nM in assay [1] and 92 nM at Human Full Length PARG (setting [3]).

As to `CCn1c(=O)n(Cc2nnc(C)s2)c(=O)c2cc(S(=O)(=O)NC3(C)CC3)ccc21` [Example 614, 1-Ethyl-N-(1-methylcyclopropyl)-3-[(5-methyl-1,3,4-thiadiazol-2-yl)methyl]-2,4-dioxo-quinazoline-6-sulfonamide], the IC50 at Human Full Length ARH3 was over 150000 nM; with PARG in HeLa cell line (setting [5]), 122 nM; at Human Full Length PARG (read-out: PARG Biochem IC50) it was 239 nM.

For `Cc1ncc(Cn2c(=O)c3cc(S(=O)(=O)NC4(C)CC4)ccc3n(CC3CC3)c2=O)s1` [Example 156], the IC50 at Human Full Length ARH3 was over 100000 nM; in the assay with PARG in HeLa cell line (setting [2]), 28 nM; in assay [1] it was over 150000 nM; at Human Full Length PARG (setting [3]), 19 nM.

With `Cc1nnc(Cn2c(=O)c3cc(S(=O)(=O)NC4(CF)CC4)ccc3n(CCF)c2=O)s1` [Example 629, 1-(2-Fluoroethyl)-N-[1-(fluoromethyl)cyclopropyl]-3-[(5-methyl-1,3,4-thiadiazol-2-yl)methyl]-2,4-dioxo-quinazoline-6-sulfonamide], the IC50 on Human Full Length ARH3 is over 150000 nM; with PARG in HeLa cell line (setting [6]), 226 nM; on Human Full Length PARG (read-out: PARG Biochem IC50), 82 nM.

With `Cc1nnc(Cn2c(=O)c3cc(S(=O)(=O)NC4(CF)CC4)ccc3n(Cc3cnn(C)c3)c2=O)s1` [Example 630, N-[1-(Fluoromethyl)cyclopropyl]-1-[(1-methylpyrazol-4-yl)methyl]-3-[(5-methyl-1,3,4-thiadiazol-2-yl)methyl]-2,4-dioxo-quinazoline-6-sulfonamide], the values for the 50% inhibitory concentration (IC50) on Human Full Length ARH3, in the assay on PARG in HeLa cell line (setting [5]) and at Human Full Length PARG (read-out: PARG Biochem IC50) were over 150000 nM, 542 nM and 16 nM, respectively.

As for `Cc1ncc(Cn2c(=O)c3cc(S(=O)(=O)NC4(C)CC4)ccc3n(Cc3sc(C)nc3C)c2=O)s1` [Example 162], the IC50 at Human Full Length ARH3 was over 100000 nM; in the assay with PARG in HeLa cell line (setting [4]) it was 9 nM; in assay [1], over 150000 nM; on Human Full Length PARG (setting [3]), 4 nM.

On to `Cn1c(=O)c(=O)n(CC2CC2)c2ccc(S(=O)(=O)NC3(C)CC3)cc21` [Example 22, 1-(Cyclopropylmethyl)-4-methyl-N-(1-methylcyclopropyl)-2,3-dioxo-quinoxaline-6-sulfonamide], for which the results for the IC50 (on Human Full Length ARH3; in assay [1]; at Human Full Length PARG (setting [3])) were over 150000 nM, over 150000 nM and 1020 nM, respectively.

Regarding `Cc1cc(Cn2nc(CC3CCOCC3)c3ccc(S(=O)(=O)NC4(C)CC4)cc3c2=O)on1` [Example 308], the IC50 is over 150000 nM on Human Full Length ARH3, 201 nM with PARG in HeLa cell line (setting [4]), over 150000 nM in assay [1] and 274 nM at Human Full Length PARG (setting [3]).

For the compound `Cc1cc(Cn2cc(C(=O)C3CC3)c3ccc(S(=O)(=O)NC4(C)CC4)cc3c2=O)on1` [Example 311, 4-(Cyclopropanecarbonyl)-N-(1-methylcyclopropyl)-2-[(3-methylisoxazol-5-yl)methyl]-1-oxo-isoquinoline-7-sulfonamide], the IC50 at Human Full Length ARH3 is over 150000 nM; in assay [1], over 150000 nM; at Human Full Length PARG (setting [3]), 549 nM.

In the case of `C#CCn1c(=O)n(Cc2cnc(C)s2)c(=O)c2cc(S(=O)(=O)NC3(C)CC3)ccc21` [Example 161], the IC50 on Human Full Length ARH3 is over 100000 nM; in the assay with PARG in HeLa cell line (setting [4]) it was 82 nM; in assay [1], over 150000 nM; at Human Full Length PARG (setting [3]), 45 nM.

In the case of `Cc1cc(Cn2nc(Cc3ccccc3)c3ccc(S(=O)(=O)NC4(C)CC4)cc3c2=O)on1` [Example 298], the IC50 at Human Full Length ARH3 is over 150000 nM; in assay [1] it was over 150000 nM; at Human Full Length PARG (setting [3]) it was 648 nM.

In the case of `Cc1cc(Cn2c(=O)n(Cc3cnn(C)c3)c(=O)c3cc(S(=O)(=O)NC4(C)CC4)ccc32)n(C)n1` [Example 173], the IC50 at Human Full Length ARH3 is over 150000 nM; with PARG in HeLa cell line (setting [4]), 88 nM; in assay [1], over 150000 nM; on Human Full Length PARG (setting [3]) it was 18 nM.

Take `Cc1nc(C)c(Cn2c(=O)n(Cc3cnn(C)c3)c(=O)c3cc(S(=O)(=O)NC4(CF)CC4)ccc32)s1` [Example 463, 1-[(2,4-Dimethylthiazol-5-yl)methyl]-N-[1-(fluoromethyl)cyclopropyl]-3-[(1-methylpyrazol-4-yl)methyl]-2,4-dioxo-quinazoline-6-sulfonamide]: the IC50 was over 150000 nM on Human Full Length ARH3, 9 nM in the assay with PARG in HeLa cell line (setting [6]), over 150000 nM in assay [1] and 6 nM on Human Full Length PARG (read-out: PARG Biochem IC50).

Take `Cc1nc(Cn2c(=O)n(Cc3nnc(C)s3)c(=O)c3cc(S(=O)(=O)NC4(CF)CC4)ccc32)no1` [Example 631, N-[1-(Fluoromethyl)cyclopropyl]-1-[(5-methyl-1,2,4-oxadiazol-3-yl)methyl]-3-[(5-methyl-1,3,4-thiadiazol-2-yl)methyl]-2,4-dioxo-quinazoline-6-sulfonamide]: the 50% inhibitory concentration (IC50) was over 150000 nM at Human Full Length ARH3, 706 nM with PARG in HeLa cell line (setting [6]) and 121 nM at Human Full Length PARG (read-out: PARG Biochem IC50).

Regarding `Cc1cc(Cn2c(=O)c3cc(S(=O)(=O)NC4(CF)CC4)ccc3n(Cc3sc(C)nc3C)c2=O)on1` [Example 616, 1-[(2,4-Dimethylthiazol-5-yl)methyl]-N-[1-(fluoromethyl)cyclopropyl]-3-[(3-methylisoxazol-5-yl)methyl]-2,4-dioxo-quinazoline-6-sulfonamide], the IC50 at Human Full Length ARH3 is over 150000 nM; in the assay with PARG in HeLa cell line (setting [6]), 25 nM; on Human Full Length PARG (read-out: PARG Biochem IC50), 17 nM.

Turning to `Cc1nc(C)c(Cn2c(=O)n(C)c(=O)c3cc(S(=O)(=O)NC4(C)CC4)ccc32)s1` [Example 133], the IC50 on Human Full Length ARH3 was over 100000 nM; in the assay with PARG in HeLa cell line (setting [4]), 124 nM; in assay [1], over 150000 nM; on Human Full Length PARG (setting [3]) it was 184 nM.

`CC1(NS(=O)(=O)c2ccc3nc(N4CCCC4)[nH]c(=O)c3c2)CC1` [Example 98]: the IC50 at Human Full Length ARH3 was over 150000 nM; in assay [1], over 150000 nM; on Human Full Length PARG (setting [3]) it was 9440 nM.

Turning to `Cc1nc(C)c(Cn2c(=O)n(Cc3c(C)noc3C)c(=O)c3cc(S(=O)(=O)NC4(C)CC4)ccc32)s1` [Example 165], the IC50 is over 100000 nM at Human Full Length ARH3, 63 nM with PARG in HeLa cell line (setting [2]), over 150000 nM in assay [1] and 33 nM at Human Full Length PARG (setting [3]).

Take `CCCCn1c(=O)n(Cc2cnn(C)c2)c(=O)c2cc(S(=O)(=O)NC3(CF)CC3)ccc21` [Example 617, 1-Butyl-N-[1-(fluoromethyl)cyclopropyl]-3-[(1-methylpyrazol-4-yl)methyl]-2,4-dioxo-quinazoline-6-sulfonamide]: the IC50 on Human Full Length ARH3 was over 150000 nM; with PARG in HeLa cell line (setting [6]) it was 37 nM; on Human Full Length PARG (read-out: PARG Biochem IC50) it was 39 nM.

Turning to `CCn1c(=O)n(Cc2nnc(C)s2)c(=O)c2cc(S(=O)(=O)NC3(CF)CC3)ccc21` [Example 602, 1-Ethyl-N-[1-(fluoromethyl)cyclopropyl]-3-[(5-methyl-1,3,4-thiadiazol-2-yl)methyl]-2,4-dioxo-quinazoline-6-sulfonamide], the IC50 was over 150000 nM at Human Full Length ARH3, 135 nM with PARG in HeLa cell line (setting [6]), over 150000 nM in assay [1] and 131 nM on Human Full Length PARG (read-out: PARG Biochem IC50).

On to `CNc1nc2ccc(S(=O)(=O)NC3(C)CC3)cc2n(C)c1=O` [Example 41, 4-Methyl-2-(methylamino)-N-(1-methylcyclopropyl)-3-oxo-quinoxaline-6-sulfonamide], for which the figures for the IC50 (at Human Full Length ARH3; in assay [1]; at Human Full Length PARG (setting [3])) were over 150000 nM, over 150000 nM and 5550 nM, respectively.

What is called IC50 is the concentration that gives 50% inhibition.
